“And” between values parts separate entries of the source, which are not always exact repeats. Identical values can stand only once. Like-named read-outs stand apart in the source and are kept apart here.
Assays:
UCHL1 = biological target: T1, UCHL1 (Homo sapiens, UniProt P09936); experiment: kobs/[I] kinetic assay; assay type: biochemical; set-up: kobs: unit not given here; details: Figure 3c right panel
T1 sequence (P09936 1-223): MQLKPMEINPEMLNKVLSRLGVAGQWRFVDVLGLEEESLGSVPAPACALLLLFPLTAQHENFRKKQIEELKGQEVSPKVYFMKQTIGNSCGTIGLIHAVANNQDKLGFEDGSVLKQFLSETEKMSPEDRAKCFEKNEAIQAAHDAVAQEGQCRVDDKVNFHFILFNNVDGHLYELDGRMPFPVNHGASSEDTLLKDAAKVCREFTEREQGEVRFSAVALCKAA
Method: Reactions were performed in 384 well plates as above. Compound (5 µL of a 4x stock in reaction buffer H supplemented with 2.5 mM TCEP; varying final concentrations ranging from 78 nM to 200 µM) and Ub-Rhodamine 110 (5 µL of a 4x stock in buffer H supplemented with 2.5 mM TCEP; final concentration: 50 nM) were mixed in a 1:1 ratio.

UCHL3 = biological target: T2, UCHL3 (Homo sapiens, UniProt P15374); experiment: Ub-Rhodamine (Ubiquitin rhodamine cleavage) assay; assay type: biochemical; details: for normalized UCHL3 activity: independent experiments
T2 sequence (P15374 1-230): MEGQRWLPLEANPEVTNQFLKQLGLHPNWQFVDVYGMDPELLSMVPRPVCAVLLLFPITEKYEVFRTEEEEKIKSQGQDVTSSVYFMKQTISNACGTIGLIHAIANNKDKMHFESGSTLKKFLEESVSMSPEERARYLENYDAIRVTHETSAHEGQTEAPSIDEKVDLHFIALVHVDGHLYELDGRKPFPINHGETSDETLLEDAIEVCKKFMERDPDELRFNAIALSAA

HEK293 cells = experiment: Cellular activity-based protein profiling (in-gel fluorescence); assay type: cell-based, human; details: 0.1 and 1 µM; 24 h
Method: Cells (7 × 10^5) were seeded in six-well plates and cultivated for 48 h. Cells were then incubated in fresh DMEM supplemented with compound or DMSO for 24 h. The cells were washed with ice-cold PBS and harvested in 200 µL ABP lysis buffer as described above. […] Samples were separated by SDS-PAGE and analyzed for fluorescent protein-compound conjugates as described above.

Structure (SMILES): C#CCCCNC(=O)c1ccc(-n2cnc(NC(=O)[C@H]3CCN(C#N)C3)c2)cc1 [GK13S]
- kobs (UCHL1; c(GK13S) 0.078125): 0.000109
- kobs (UCHL1; c(GK13S) 0.15625): 0.000197
- kobs (UCHL1; c(GK13S) 0.3125): 0.000258
- kobs (UCHL1; c(GK13S) 0.625): 0.000456
- kobs (UCHL1; c(GK13S) 1.25): 0.000882
- kobs (UCHL1; c(GK13S) 2.5): 0.001558
- IC50 (UCHL3; Fig. 6b, catalytic domain, 1 h preincubation, read-out: IC50 (UCHL3)): > 10 µM
- normalized UCHL3 activity (UCHL3; GK13S 0.305176 nM, 1 h preincubation): 0.9831 and 1.008 and 0.9131 and 1.009
- normalized UCHL3 activity (UCHL3; GK13S 0.610352 nM, 1 h preincubation): 1.008 and 0.9835 and 0.9698 and 1.0514
- normalized UCHL3 activity (UCHL3; GK13S 1.2207 nM, 1 h preincubation): 0.9936 and 1.008 and 1.001 and 1.003
- normalized UCHL3 activity (UCHL3; GK13S 2.44141 nM, 1 h preincubation): 1.012 and 1.01 and 1.135 and 1.033
- normalized UCHL3 activity (UCHL3; GK13S 4.88281 nM, 1 h preincubation): 1.012 and 1.015 and 0.9843 and 1.023
- normalized UCHL3 activity (UCHL3; GK13S 9.76562 nM, 1 h preincubation): 0.9453 and 1.0198 and 0.9972 and 1.02
- normalized UCHL3 activity (UCHL3; GK13S 19.5312 nM, 1 h preincubation): 1.009 and 0.9664 and 0.9869 and 0.9884
- normalized UCHL3 activity (UCHL3; GK13S 39.0625 nM, 1 h preincubation): 0.985 and 0.9652 and 1.009 and 1.006
- normalized UCHL3 activity (UCHL3; GK13S 78.125 nM, 1 h preincubation): 1.004 and 0.9567 and 0.9151 and 0.8923
- normalized UCHL3 activity (UCHL3; GK13S 156.25 nM, 1 h preincubation): 0.9712 and 0.9475 and 0.9259 and 1.044
- normalized UCHL3 activity (UCHL3; GK13S 312.5 nM, 1 h preincubation): 1.024 and 0.9438 and 0.9427 and 1.0301
- normalized UCHL3 activity (UCHL3; GK13S 625 nM, 1 h preincubation): 1.039 and 0.9614 and 0.9134 and 1.027
- normalized UCHL3 activity (UCHL3; GK13S 1250 nM, 1 h preincubation): 1.008 and 0.9574 and 0.9187 and 1.016
- normalized UCHL3 activity (UCHL3; GK13S 2500 nM, 1 h preincubation): 0.975 and 0.9516 and 0.9328 and 0.9957
- normalized UCHL3 activity (UCHL3; GK13S 5000 nM, 1 h preincubation): 0.9885 and 0.924 and 0.8998 and 0.9921
- normalized UCHL3 activity (UCHL3; GK13S 10000 nM, 1 h preincubation): 0.972 and 0.9338 and 0.9178 and 0.9898
- IC50 (UCHL3; Supplementary Fig. 10c, 3 independent experiments, read-out: IC50 (UCHL3 wt)): > 100 µM
- labeling of endogenous proteins in intact cells (HEK293 cells): strong signal for a band of ~30 kDa

From paper PMC9549030, “Structural basis for specific inhibition of the deubiquitinase UCHL1” (Nature Communications, 2022)
